Data published in patent US6835819B2, “Sequences and their use” (Metcon Medicin AB, priority 2000, dated 2004).

How the values were obtained:
Format in all cases: cell-based, mouse
IRS-1 mRNA = IRS-1 mRNA expression (Northern blots) in differentiated 3T3-L1 adipocytes; settings: 48 hrs; insulin alone or combined with PPARγ ligand; same experiments as IRS-2
Protocol: (§1) 3T3-L1 fibroblasts were grown and differentiated into adipocytes according to Rubin et al., 1977). At least 90% of the cells had acquired the adipocyte phenotype 6 days after initiating differentiation. Eight days after differentiation, the medium was changed and the various agents added for the times indicated in the Results.
(§2) Total cellular RNA was isolated from cells with guanidinium thiocyanate, as described (Chirgwin et al. 1979). Northern blot analyses were performed on total cellular RNA (30 μg) with labeled cDNA probes made against β-actin as housekeeping gene, mouse IRS-1 (bp 1333-2335) and mouse IRS-2 (bp 2987-3325) (kindly provided by Drs. J. Pierce and L-M Wang, NCI, NIH), rodent GLUT4 (bp 121-2128, Accession Nr NM 001042, kindly provided by Dr. Sam W. Cushman, NIDDK, NIH) and PKB/Akt using a PCR fragment against PKBβ (bp 282-1130, Accession Nr M95936) in a common sequence for PKBα, PKBβ and PKBγ. 5′ sequence […] and 3′ sequence […] were used as PCR primers (SEQ. ID. NO. 13 and 14, respectively).

PKB/Akt mRNA = PKB/Akt mRNA expression (Northern blots) in differentiated 3T3-L1 adipocytes; settings: 48 hrs; insulin alone or combined with PPARγ ligand; same experiments as IRS-2
Protocol: as §1, §2

PKB/Akt phosphorylation = assay: Acute insulin-stimulated PKB/Akt phosphorylation (immunoblot) in pre-cultured 3T3-L1 adipocytes; settings: cells cultured with agent alone for 48 hrs, serum-starved 3 hrs, then 100 nM insulin 10 min
Protocol: Lysates were prepared from cells that had been cultured for 48 hrs as in FIG. 3A, serum-starved for 3 hrs, and then stimulated with 100 nM insulin for 10 min. Following separation on 7.5% SDS-PAGE, the proteins were immunoblotted with antibodies recognizing insulin-stimulated phosphoserine (PS-PKB) and phosphothreonine (PThr-PKB) PKB/Akt.
To study the acute effect of insulin, the cells were serum-deprived for 3 hrs before adding 100 nM insulin for 15 min.
The present inventor also examined the acute effect of insulin on down-stream activation of PKB/Akt in cells that had been cultured with pioglitazone for 48 hrs, washed and serum-starved for 3 hrs in fresh medium. […] Insulin (100 nM) was then added for 10 min to the serum-starved cells.

IRS-2 protein = IRS-2 protein expression (immunoblot) in differentiated 3T3-L1 cells
Protocol: (§3) 3T3-L1 fibroblasts were grown and differentiated into adipocytes according to Rubin et al., 1977). At least 90% of the cells had acquired the adipocyte phenotype 6 days after initiating differentiation. Eight days after differentiation, the medium was changed and the various agents added for the times indicated in the Results. Cell lysates were prepared as described by Rondinone et al. 1997. Equal amounts of protein were separated by SDS/PAGE, transferred and immunoblotted with appropriate antibodies against the specific proteins. Phosphotyrosines were immunoblotted with antibody PY99 (Transduction Laboratories, Lexington, N.Y.), GLUT4 with an antibody kindly provided by Dr. Sam W. Cushman (NIDDK, NIH), IRS-1 and IRS-2 with antibodies from Upstate Biotechnology, Inc. (Lake Placid, N.Y.) and PKB/Akt with antibodies from Biolab (Boston, Mass.). Immunoprecipitations were performed as described (Rondinone et at., 1997) and individual proteins were detected by blotting with horseradish peroxidase-linked secondary antibodies and using enhanced chemiluminescence (Nycomed Amersham plc., UK).

PKB/Akt protein = PKB/Akt protein expression in differentiated 3T3-L1 cells; settings: pioglitazone and/or insulin for 48 hrs
Protocol: as §3

IRS-1 protein = IRS-1 protein expression (immunoblot) in differentiated 3T3-L1 cells
Protocol: as §3

IRS-2 mRNA = IRS-2 mRNA expression (Northern blots) in differentiated 3T3-L1 adipocytes; settings: for effect on IRS-2 gene expression: FIG. 2: 10 μM darglitazone with 100 nM insulin, 10 μM WY14643 with or without insulin, 100 nM progesterone, 200 μM 8-BrcAMP
Protocol: as §1, §2

## Cc1oc(-c2ccccc2)nc1CCC(=O)c1ccc(CC2SC(=O)NC2=O)cc1 (stereo not drawn) [darglitazone]
IRS-1 mRNA
  gene expression of IRS-1: Neither insulin alone nor when combined with the PPARγ ligands, pioglitazone or darglitazone (not shown), altered
PKB/Akt mRNA
  gene expression of PKB/Akt: Neither insulin alone nor when combined with the PPARγ ligands, pioglitazone or darglitazone (not shown), altered

## insulin
PKB/Akt phosphorylation
  acute effect of insulin on PKB/Akt phosphorylation: markedly reduced
IRS-1 mRNA
  gene expression of IRS-1: Neither insulin alone nor when combined with the PPARγ ligands, pioglitazone or darglitazone (not shown), altered
PKB/Akt mRNA
  gene expression of PKB/Akt: Neither insulin alone nor when combined with the PPARγ ligands, pioglitazone or darglitazone (not shown), altered
IRS-2 protein; 48 hrs, 10 μM pioglitazone or 100 nM insulin (FIG. 1B bottom)
  IRS-2 protein expression: not changed
PKB/Akt protein
  PKB/Akt protein expression: not changed
IRS-1 protein; insulin alone, three experiments, range 25-39%
  decrease of IRS-1 protein expression: 33%
IRS-1 protein; pioglitazone alone or insulin alone, chronic (FIG. 3B bottom)
  IRS-1 protein expression: reduced
IRS-2 mRNA; 100 nM insulin added to 10 μM pioglitazone, 48 hrs (FIG. 1A bottom)
  further increase of IRS-2 mRNA by addition of insulin to pioglitazone: no further increase
IRS-2 mRNA; insulin alone (100 nM), 48 hrs
  IRS-2 gene expression: did not change

## CCc1ccc(CCOc2ccc(CC3SC(=O)NC3=O)cc2)nc1 (stereo not drawn) [pioglitazone]
IRS-2 protein; after 48 hrs
  average increase of IRS-2 protein expression: 36%
IRS-1 protein; insulin and pioglitazone combined, three experiments, range 18-39%
  change of IRS-1 protein expression: −31%
IRS-1 protein; pioglitazone alone, three experiments
  change of IRS-1 protein expression: +7%
IRS-2 mRNA; 1 μM, n=2
  average increase of IRS-2 mRNA expression: 230%
IRS-2 mRNA; 10 μM pioglitazone in combination with 100 nM insulin, 48 hrs (FIG. 1A top)
  increase of IRS-2 mRNA: ~4 fold
IRS-2 mRNA; 10 μM, same experiments as 1 μM, n=2
  average increase of IRS-2 mRNA expression: 292%
IRS-2 mRNA; after 48 hrs, 5 experiments (FIG. 1B top)
  increase of IRS-2 mRNA levels relative to β-actin mRNA: 3-5 fold

## Nc1ncnc2c1nc(Br)n2[C@@H]1O[C@@H]2COP(=O)(O)O[C@H]2[C@H]1O [8-BrcAMP]
IRS-2 mRNA; 48 hrs
  effect on IRS-2 gene expression: no effects were seen

## Cc1cccc(Nc2cc(Cl)nc(SCC(=O)O)n2)c1C [WY14643]
IRS-1 mRNA
  gene expression of IRS-1: no effect was seen
PKB/Akt mRNA
  gene expression of PKB/Akt: no effect was seen
IRS-2 mRNA; 10 μM, n=2, also when insulin was added (FIG. 2 middle)
  average increase of IRS-2 mRNA expression: 9%
IRS-2 mRNA; 48 hrs
  effect on IRS-2 gene expression: completely without effect

## CC(=O)[C@H]1CC[C@H]2[C@@H]3CCC4=CC(=O)CC[C@]4(C)[C@H]3CC[C@]12C [progesterone]
IRS-2 mRNA; 48 hrs
  effect on IRS-2 gene expression: no effects were seen
